{"source": "patent US9115088B2", "about": "“Anti-malarial agents” (MERCK PATENT GMBH, priority 2012, dated 2015)", "key": {"[1]": {"test_system": "Plasmodium falciparum strain 3D7", "assay": "Plasmodium falciparum 3D7 growth inhibition, SYBRgreen fluorescence assay", "assay_type": "cell-based", "settings": "minimum of 3 independent experiments, read-out: EC50 (μM) for Pf 3D7", "method": "Parasite cultures and cytotoxicity assay methodology for Plasmodium falciparum. Cultures of the widely-used malaria reference strain of chloroquinine-sensitive Plasmodium falciparum strain 3D7 were maintained in a 5% suspension of human red blood cells cultured in RPMI 1640 medium supplemented with 0.5% Albumax II (available from Gibco Life Technologies, San Diego, Calif.), 12 mM sodium bicarbonate, 0.2 mM hypoxanthine, (pH 7.3), and 20 mg/litre gentamicin at 37° C., in an atmosphere of 1% O2, 3% CO2 with a gas balance of nitrogen. […] Mefloquine was used as a drug control to monitor the quality of the assay (Z′=0.6 to 0.8, where Z′ is a measure of the discrimination between the positive and negative controls on a screen plate). Dose-response curves were determined from a minimum of 3 independent experiments. Compound bioactivity was expressed as EC50, the effective concentration of compound causing 50% parasite death."}, "[2]": {"test_system": "GFP-transfected Plasmodium berghei ANKA strain", "assay": "Plasmodium berghei mouse model, standard Peter's four-day test", "assay_type": "in vivo", "settings": "NMRI female mice, oral, 1 mg/kg 4x (once a day for four days); for % Reduction in parasitaemia: parasitaemia 24 h after last dose", "from_the_text": "Plasmodium species that lead to human malarial infection are essentially unable to infect non-primate animal models. Rodent models as antimalarial drug discovery efficacy models for compound screening have been extensively used and validated for use through the identification of several antimalarial drugs such as mefloquine, and artemisinin derivatives. Such mouse models, including the Plasmodium berghei mouse model are an integral part of the drug discovery and development pathway. […] In particular experimental results have shown that a compound of formula (I) has improved potency, expressed as ED90, the dose required to eradicate 90% of the target infection [ED90 of 0.3-0.1 mg/kg], versus existing anti-malarial drugs.\nMethodology. Using the standard Peter's test in NMRI female mice infected with GFP-transfected Plasmodium berghei ANKA strain were used. Test compounds were dosed orally once a day for four days at nine dose levels ([…], 0.03, 0.1, 0.3, 1, 3, 10, 30 mg/kg) and parasitaemia assessed 24 h after the last dose to determine ED90. The test protocol is described in detail Nature, 2004, 430, 900-904, the contents of which are included herein by reference."}, "[3]": {"assay": "Dynamic vapour sorption (DVS) moisture sorption", "assay_type": "physicochemical", "settings": "for hygroscopicity (DVS): 25° C.; for water uptake (DVS): 80% R.H./25° C.", "method": "The moisture sorption of compounds of the invention was measured using a SMS (Surface Measurement Systems) DVS Intrinsic. The relative humidity at 25° C. was calibrated against deliquescence point of LiCl, Mg(NO3)2 and KCl. Parameters for DVS test are listed below. [table]"}, "[4]": {"assay": "Thermogravimetric analysis (TGA)", "assay_type": "physicochemical", "settings": "10° C./min; example 1A heated to ~120° C., example 2 to ~150° C.", "method": "Thermogravimetric Analysis (TGA) of compounds of the invention was conducted at 10° C./min ramping form room temperature to desired temperature in open platinum pans using at TA Instruments Q5000 TGA. The temperature was calibrated using nickel and weight using TA-supplied standard weights and verified against calcium oxalate monohydrate dehydration and decomposition. Typical parameters for TGA are described in Table 5. [table]"}, "Plasmodium falciparum": {"test_system": "Plasmodium falciparum", "assay": "P. falciparum SCID mouse model", "assay_type": "in vivo", "settings": "preliminary results", "from_the_text": "Compounds can be further assessed using a murine model of Plasmodium falciparum malaria (the so-called P. falciparum SCID mouse model). The murine Plasmodium falciparum models require the engrafment of mice with human erythrocytes. The use NODscidlL2Rγ^null mice engrafted with human erythrocytes and competent P. falciparum strains have been validated for the preclinincal evaluation of antimalarials. The test protocol is described in detail at Antimicrobial Agents and Chemotherapy, 2009, 53 4533-4536, the contents of which are included herein by reference."}, "[5]": {"test_system": "sporogonic development in the mosquito", "assay": "Standard membrane feeding assay (SMFA)", "assay_type": "in vivo", "settings": "preliminary results", "from_the_text": "The standard membrane feeding assay (SMFA) is used to test the potential effects of compounds or drugs on sporogonic development in the mosquito and it is used to asses their potential for malaria transmission blocking in vivo. The test protocol is described in detail at Antimicrobial Agents and Chemotherapy, 2012, 56 3544-3548 and PLoS ONE 7(8): e42821, the contents of which are included herein by reference."}, "[6]": {"settings": "Plasmodium falciparum, 3D7, concentration causing 50% parasite death"}, "[7]": {"settings": "concentration causing 50% parasite death"}}, "note": "Structures can show the parent of a compound that is named as a salt. Where two headings read alike, the source gives them in different places.", "data": [{"smiles": "O=C(NCCN1CCCC1)c1cc(-c2ccc(CN3CCOCC3)cc2F)nc2ccc(F)cc12", "note": "[Example 7, 6-fluoro-2-(2-fluoro-4-(morpholinomethyl)phenyl)-N-(2-(pyrrolidin-1-yl)ethyl)quinoline-4-carboxamide]", "values": [{"measurement": "EC50", "setting": "[1]; [6]", "result": 0.0005, "unit": "µM"}, {"measurement": "Mean Survival", "setting": "[2]", "result": 11, "unit": "days"}, {"measurement": "% Reduction in parasitaemia", "setting": "[2]", "result": 99.9, "unit": "%"}]}, {"smiles": "O=C(NCCN1CCCC1)c1cc(-c2ccc(CN3CCOCC3)cc2)nc2ccc(F)cc12.O=C(O)/C=C/C(=O)O", "note": "[Example 2, 6-Fluoro-2-[4-(morpholinomethyl)phenyl]-N-(2-pyrrolidin-1-ylethyl)quinoline-4-carboxamide; fumaric acid salt]", "values": [{"measurement": "EC50", "setting": "[1]; [7]", "result": 0.007, "unit": "µM"}, {"measurement": "solid form change post DVS testing", "setting": "[3]", "result": "No solid form change"}, {"measurement": "hygroscopicity (DVS)", "setting": "[3]", "result": "slightly hygroscopic"}, {"measurement": "water uptake (DVS)", "setting": "[3]", "result": "~1.2", "unit": "%"}, {"measurement": "weight loss on heating (TGA)", "setting": "[4]", "result": "negligible weight loss"}]}, {"smiles": "O=C(NCCN1CCCC1)c1cc(-c2ccc(CN3CCOCC3)cc2)nc2ccccc12", "note": "[Example 5, 2-[4-(morpholinomethyl)phenyl]-N-(2-pyrrolidin-1-ylethyl)quinoline-4-carboxamide; fumaric acid salt]", "values": [{"measurement": "EC50", "setting": "[1]; [7]", "result": 0.003, "unit": "µM"}]}, {"smiles": "O=C(NCCN1CCCC1)c1cc(-c2ccc(CN3CCOCC3)cc2Cl)nc2ccc(F)cc12", "note": "[Example 11, 2-(2-chloro-4-(morpholinomethyl)phenyl)-6-fluoro-N-(2-(pyrrolidin-1-yl)ethyl)quinoline-4-carboxamide; fumaric acid salt]", "values": [{"measurement": "EC50", "setting": "[1]; [6]", "result": 0.003, "unit": "µM"}]}, {"smiles": "O=C(NCCN1CCCC1)c1cc(-c2ccc(CN3CCOCC3)cc2)nc2ccc(Cl)cc12", "note": "[Example 3, 6-chloro-2-[4-(morpholinomethyl)phenyl]-N-(2-pyrrolidin-1-ylethyl)quinoline-4-carboxamide]", "values": [{"measurement": "EC50", "setting": "[1]; [6]", "result": 0.001, "unit": "µM"}]}, {"smiles": "O=C(NCCN1CCCC1)c1cc(-c2ccc(CN3CCS(=O)(=O)CC3)cc2)nc2ccc(F)cc12", "note": "[Example 9, 2-(4-((1,1-dioxidothiomorpholino)methyl)phenyl)-6-fluoro-N-(2-(pyrrolidin-1-yl)ethyl)quinoline-4-carboxamide]", "values": [{"measurement": "EC50", "setting": "[1]; [6]", "result": 0.0006, "unit": "µM"}, {"measurement": "Mean Survival", "setting": "[2]", "result": 7, "unit": "days"}, {"measurement": "% Reduction in parasitaemia", "setting": "[2]", "result": 99.0, "unit": "%"}]}, {"smiles": "O=C(NCCN1CCCC1)c1cc(-c2ccc(CN3CCOCC3)cc2)nc2ccc(F)cc12", "note": "[Example 1, 6-Fluoro-2-[4-(morpholinomethyl)phenyl]-N-(2-pyrrolidin-1-ylethyl)quinoline-4-carboxamide]", "values": [{"measurement": "EC50", "setting": "[1]; [7]", "result": 0.001, "unit": "µM"}, {"measurement": "Mean Survival", "setting": "[2]", "result": 14, "unit": "days"}, {"measurement": "% Reduction in parasitaemia", "setting": "[2]", "result": 99.9, "unit": "%"}, {"measurement": "solid form change post DVS testing", "setting": "[3]", "result": "No solid form change"}, {"measurement": "hygroscopicity (DVS)", "setting": "[3]", "result": "non-hygroscopic"}, {"measurement": "water uptake (DVS)", "setting": "[3]", "result": 0.1, "unit": "%"}, {"measurement": "weight loss on heating (TGA)", "setting": "[4]", "result": "< 0.1", "unit": "wt %"}, {"measurement": "in vivo behaviour in the P. falciparum SCID mouse model", "setting": "Plasmodium falciparum", "result": "desirable in vivo behaviour"}, {"measurement": "in vivo behaviour in standard membrane feeding assay", "setting": "[5]", "result": "desirable in vivo behaviour"}]}, {"smiles": "O=C(NCCN1CCCC1)c1cc(-c2cc(F)c(CN3CCOCC3)c(F)c2)nc2ccc(F)cc12", "note": "[Example 8, 2-(3,5-difluoro-4-(morpholinomethyl)phenyl)-6-fluoro-N-(2-(pyrrolidin-1-yl)ethyl)quinoline-4-carboxamide]", "values": [{"measurement": "EC50", "setting": "[1]; [6]", "result": 0.004, "unit": "µM"}]}, {"smiles": "O=C(NCCN1CCCC1)c1cc(-c2ccc(CN3CCOCC3)c(F)c2)nc2ccc(F)cc12", "note": "[Example 6, 6-fluoro-2-(3-fluoro-4-(morpholinomethyl)phenyl)-N-(2-(pyrrolidin-1-yl)ethyl)quinoline-4-carboxamide]", "values": [{"measurement": "EC50", "setting": "[1]; [6]", "result": 0.0007, "unit": "µM"}, {"measurement": "Mean Survival", "setting": "[2]", "result": 11, "unit": "days"}, {"measurement": "% Reduction in parasitaemia", "setting": "[2]", "result": 99.8, "unit": "%"}]}, {"smiles": "O=C(NCCN1CCCC1)c1cc(-c2ccc(CN3CCOCC3)cc2)nc2ccccc12", "note": "[Example 4, 2-[4-(morpholinomethyl)phenyl]-N-(2-pyrrolidin-1-ylethyl)quinoline-4-carboxamide]", "values": [{"measurement": "EC50", "setting": "[1]; [7]", "result": 0.001, "unit": "µM"}]}]}
